Experimental data taken from US10793892B2, “Method for detecting the presence of expanded spectrum β-lactamase-producing bacteria in a sample” (INSERM (INSTITUT NATIONAL DE LA SANTE ET DE LA RECHERCHE …, priority 2011, dated 2020).

Assays:
Experiment in all cases: ESBL NDP test using cultured strains
Design in all cases: key: (+) and (−) referred to color change being, red to yellow or unchanged, respectively; (+) and (−) referred to color change being, red to yellow or unchanged, respectively
[1] = system: E. coli; assay type: biochemical, Escherichia coli
Procedure: (§1) Strains were isolated on Mueller-Hinton agar (Biorad, Marnes-la-Coquette, France) and incubated at 37° C. for 16 h to 24 h before performing the NDP rapid ESBL test as follows. One calibrated inoculated loop (10 μl) of the tested strain was resuspended in 150 μl of 20 mM Tris-HCl lysis buffer previously distributed in Microbead tubes (Ultraclean Microbial DNA isolation kit Bead Tubes, MO BIO Laboratories, Carlsbad, USA). Mechanical lysis of bacteria was performed by strong agitation of Microbead tubes using a vortex adapter (MO BIO Laboratories) for 30 min at room temperature. This bacterial suspension was centrifuged at 10,000×g at room temperature for 5 min. Thirty μl of the supernatant was mixed in a well of a 96-well tray with 100 μl of a 1 ml solution made of 3 mg of purified cefotaxime sodium salt (Sigma-Aldrich, Saint-Quentin-Fallavier, France) in a pH 7.8 phenol red solution. […]. The phenol red solution was made by taking 2 ml of a concentrated pH 8 phenol solution (made from a mixture of phenol red 0.5% in distilled water) to which 16.6 ml of distilled water was added. The pH value was then adjusted to a 7.8 value by adding drops of a 1 N NaOH solution. Mixture of the phenol red solution and the enzymatic suspension being tested was incubated at 37° C. for 30 min. Similarly, culture extracts were analyzed in wells containing cefotaxime and tazobactam (4 mg/ml). Other concentrations of tazobactam and other ß-lactamase inhibitors were tested giving less clear results (data not shown). […] This definition of test positivity will be applied throughout the study.

[2] = system: S. enterica; assay type: biochemical, Salmonella enterica
Procedure: Strains were isolated on Mueller-Hinton agar (Biorad, Marnes-la-Coquette, France) and incubated at 37° C. for 16 h to 24 h before performing the NDP rapid ESBL test as follows. One calibrated inoculated loop (10 μl) of the tested strain was resuspended in 150 μl of 20 mM Tris-HCl lysis buffer previously distributed in Microbead tubes (Ultraclean Microbial DNA isolation kit Bead Tubes, MO BIO Laboratories, Carlsbad, USA). Mechanical lysis of bacteria was performed by strong agitation of Microbead tubes using a vortex adapter (MO BIO Laboratories) for 30 min at room temperature. This bacterial suspension was centrifuged at 10,000×g at room temperature for 5 min. Thirty μl of the supernatant was mixed in a well of a 96-well tray with 100 μl of a 1 ml solution made of 3 mg of purified cefotaxime sodium salt (Sigma-Aldrich, Saint-Quentin-Fallavier, France) in a pH 7.8 phenol red solution. […]. The phenol red solution was made by taking 2 ml of a concentrated pH 8 phenol solution (made from a mixture of phenol red 0.5% in distilled water) to which 16.6 ml of distilled water was added. The pH value was then adjusted to a 7.8 value by adding drops of a 1 N NaOH solution. Mixture of the phenol red solution and the enzymatic suspension being tested was incubated at 37° C. for 30 min. Similarly, culture extracts were analyzed in wells containing cefotaxime and tazobactam (4 mg/ml). […]

[3] = system: E. cloacae; assay type: biochemical, Enterobacter cloacae
Procedure: as §1

[4] = system: C. brakii; assay type: biochemical; settings: C. brakii Wild-type, chromosome-encoded cephalosporinase, n=1
Procedure: as §1

[5] = system: S. ficaria; assay type: biochemical
Procedure: as §1

[6] = system: S. thyphimurium; assay type: biochemical; settings: S. thyphimurium 10.81, CTX-M-1
Procedure: as §1

With `CO/N=C(\C(=O)N[C@@H]1C(=O)N2C(C(=O)O)=C(COC(C)=O)CS[C@H]12)c1csc(N)n1` [CTX, cefotaxime] the “ESBL NDP Test from: Colonies” value ([1]; E. coli C5O52, CTX-M-28) was “+”, the “Test (color change)” value ([1]; E. coli CMY-2, n=1) was “+” and the “Test (color change)” value ([1]; E. coli CTX-M-1, n=16) was “+”. The “Test (color change)” value ([1]; E. coli CTX-M-2, n=3) was “+”, the “Test (color change)” value ([1]; E. coli CTX-M-3, n=1) was “+” and the “Test (color change)” value ([1]; E. coli CTX-M-9, n=1) was “+”. The “Test (color change)” value ([1]; E. coli CTX-M-14, n=15) was “+”, the “Test (color change)” value ([1]; E. coli CTX-M-15, n=46) was “+” and the “Test (color change)” value ([1]; E. coli CTX-M-27, n=6) was “+”. The “Test (color change)” value ([1]; E. coli CTX-M-28, n=1) was “+”, the “Test (color change)” value ([1]; E. coli CTX-M-32, n=1) was “+” and the “Test (color change)” value ([1]; E. coli CTX-M-97, n=1) was “+”. The “Test (color change)” value ([1]; E. coli DHA-1, n=1) was “−”, the “ESBL NDP Test from: Colonies” value ([1]; E. coli Ec13 SYD, CMY-2) was “+” and the “ESBL NDP Test from: Colonies” value ([1]; E. coli GOU, DHA-1) was “−”. The “ESBL NDP Test from: Colonies” value ([1]; E. coli LOU, ACC-1) was “+”, the “Test (color change)” value ([1]; E. coli SHV-2a, n=3) was “+” and the “Test (color change)” value ([1]; E. coli SHV-3, n=1) was “+”. For the same compound, the “Test (color change)” value ([1]; E. coli SHV-12, n=1) was “−”, the “Test (color change)” value ([1]; E. coli SHV-12, n=6) was “+” and the “Test (color change)” value ([1]; E. coli TEM-1 penicillinase, n=5) was “−”. The “Test (color change)” value ([1]; E. coli TEM-12, n=1) was “−”, the “Test (color change)” value ([1]; E. coli TEM-29, n=2) was “−” and the “Test (color change)” value ([1]; E. coli TEM-52, n=8) was “+”. The “Test (color change)” value ([1]; E. coli TEM-133, n=1) was “−”, the “Test (color change)” value ([1]; E. coli VEB-1, n=1) was “+” and the “Test (color change)” value ([1]; E. coli Wild-type, no resistance, n=5) was “−”. The “Test (color change)” value ([2]; S. enterica CTX-M-1, n=1) was “+”, the “Test (color change)” value ([2]; S. enterica Wild-type, no resistance, n=1) was “−” and the “ESBL NDP Test from: Colonies” value ([3]; E. cloacae 09.57, SHV-12) was “+”. For the same compound, the “ESBL NDP Test from: Colonies” value ([3]; E. cloacae 10.75, CTX-M-15) was “+”, the “ESBL NDP Test from: Colonies” value ([3]; E. cloacae 10.87, CTX-M-15) was “+” and the “ESBL NDP Test from: Colonies” value ([3]; E. cloacae BG 1106 7725, Wild-type) was “−”. The “ESBL NDP Test from: Colonies” value ([3]; E. cloacae BG 1106 7746, Wild-type) was “−”, the “ESBL NDP Test from: Colonies” value ([3]; E. cloacae BG 1107 4118, Wild-type) was “−” and the “Test (color change)” value ([3]; E. cloacae CTX-M-14, n=1) was “+”. The “Test (color change)” value ([3]; E. cloacae CTX-M-15, n=17) was “+”, the “Test (color change)” value ([3]; E. cloacae GES-5, n=1) was “+” and the “Test (color change)” value ([3]; E. cloacae PER-1, n=1) was “+”. The “Test (color change)” value ([3]; E. cloacae SHV-5, n=1) was “+”, the “Test (color change)” value ([3]; E. cloacae SHV-12, n=6) was “+” and the “Test (color change)” value ([3]; E. cloacae TEM-3, n=2) was “+”. The “Test (color change)” value ([3]; E. cloacae VEB-1, n=1) was “+”, the “Test (color change)” value ([3]; E. cloacae Wild-type, chromosome-encoded cephalosporinase, n=5) was “−” and the “Test (color change)” value ([3]; E. cloacae, overexpressed chromosome-encoded cephalosporinase, n=2) was “−”. The “Test (color change)” value ([3]; E. cloacae, overexpressed chromosome-encoded cephalosporinase, n=3) was “+”, the “Test (color change)” value [4] was “−” and the “ESBL NDP Test from: Colonies” value ([5]; S. ficaria CIP 104255, Wild-type) was “−”. For the same compound, the “Test (color change)” value ([5]; S. ficaria Wild-type, chromosome-encoded cephalosporinase, n=1) was “−” and the “ESBL NDP Test from: Colonies” value [6] was “+”.
